Experimental data reported in US20230340018A1, “MPRO CYSTEINE PROTEASE INHIBITORS” (ANIXA BIOSCIENCES, INC., priority 2020, published 2023).

Tests used:
[1] = target: SARS-CoV-2 main protease Mpro (Severe acute respiratory syndrome coronavirus 2, UniProt P0DTD1); test: FRET-based Mpro enzyme activity assay; assay type: biochemical; conditions: recombinant Mpro, 30 min pre-incubation, 0 - 200 µM; read-out: Mpro enzyme inhibition IC50
in vitro = conditions: human

SMILES	IC50 [1] [µM]	CC50 at 72 h (in vitro) [µM]
CC(C)C[C@H](NC(=O)c1cc2ccccc2[nH]1)C(=O)N[C@@H](CN1CCNC1=O)C(=O)C(=O)NCC1CC1 [Compound 24, N-((S)-1-(((S)-4-((cyclopropylmethyl)amino)-3,4-dioxo-1-(2-oxoimidazolidin-1-yl)butan-2-yl)amino)-4-methyl-1-oxopentan-2-yl)-1H-indole-2-carboxamide]	2 to 20	> 100
CC(C)C[C@H](NC(=O)c1cc2ccccc2[nH]1)C(=O)N[C@@H](CN1CCNC1=O)C(O)C(=O)NCC1CC1 (stereo partly drawn) [Compound 26, N-((2S)-1-(((2S)-4-((cyclopropylmethyl)amino)-3-hydroxy-4-oxo-1-(2-oxoimidazolidin-1-yl)butan-2-yl)amino)-4-methyl-1-oxopentan-2-yl)-1H-indole-2-carboxamide]	≤ 2	> 100
COc1cccc2[nH]c(C(=O)N[C@@H](CC(C)C)C(=O)N[C@@H](CN3CCNC3=O)C(=O)C(=O)NCC3CC3)cc12 [Compound 10, N-((S)-1-(((S)-4-((Cyclopropylmethyl)Amino)-3,4-Dioxo-1-(2-Oxoimidazolidin-1-yl)Butan-2-yl)Amino)-4-Methyl-1-Oxopentan-2-yl)-4-Methoxy-1H-Indole-2-Carboxamide]	≤ 2	> 100
COc1cccc2[nH]c(C(=O)N[C@H](C(=O)N[C@@H](CN3CCNC3=O)C(=O)C(=O)Nc3ccccc3)C3CCCCC3)cc12 [Compound 25, N-((S)-1-cyclohexyl-2-(((S)-3,4-dioxo-1-(2-oxoimidazolidin-1-yl)-4-(phenylamino)butan-2-yl)amino)-2-oxoethyl)-4-methoxy-1H-indole-2-carboxamide]	≤ 2	> 100
CC(C)C[C@H](NC(=O)c1cc2ccccc2[nH]1)C(=O)N[C@@H](Cc1ccc[nH]c1=O)C(=O)C(=O)NCc1ccccc1 [Compound 22, N-((S)-1-(((S)-4-(Benzylamino)-3,4-Dioxo-1-(2-Oxo-1,2-Dihydropyridin-3-yl)Butan-2-yl)Amino)-4-Methyl-1-Oxopentan-2-yl)-1H-Indole-2-Carboxamide]	≤ 2	> 100
CC(C)C[C@H](NC(=O)OC(C)(C)C)C(=O)N[C@@H](Cc1ccc[nH]c1=O)C(=O)C(=O)NCc1ccccc1 [Compound 27, tert-butyl ((S)-1-(((S)-4-(benzylamino)-3,4-dioxo-1-(2-oxo-1,2-dihydropyridin-3-yl)butan-2-yl)amino)-4-methyl-1-oxopentan-2-yl)carbamate]	2 to 20	> 100
COc1cccc2[nH]c(C(=O)N[C@@H](CC3CC3)C(=O)N[C@@H](CN3CCNC3=O)C(=O)C(=O)NCC3CC3)cc12 [Compound 12, N-((S)-3-Cyclopropyl-1-(((S)-4-((cyclopropylmethyl)amino)-3,4-dioxo-1-(2-oxoimidazolidin-1-yl)butan-2-yl)amino)-1-oxopropan-2-yl)-4-methoxy-1H-indole-2-carboxamide]	≤ 2	> 100
CC(C)C[C@H](NC(=O)c1nc2ccccc2[nH]1)C(=O)N[C@@H](Cc1ccc[nH]c1=O)C(=O)C(=O)NCc1ccccc1 [Compound 23, N-((S)-1-(((S)-4-(benzylamino)-3,4-dioxo-1-(2-oxo-1,2-dihydropyridin-3-yl)butan-2-yl)amino)-4-methyl-1-oxopentan-2-yl)-1H-benzo[d]imidazole-2-carboxamide]	≤ 2	> 100
